# Assay results as given in patent US5595763A (priority 1995, dated 1997).
# Assays:
# [1] = system: rat treated neonatally with low doses of streptozocin; conditions: in vivo
# diabetic rats = conditions: treated diabetic rats, experiments run in parallel
compound,measurement,setting,value
[Na+].[Na+].[O]=[W](=[O])([O-])[O-] [sodium tungstate],survival,[1],all animals survived
same,mortality,diabetic rats,about 10%
